# Measured values: EP0791056B1, “LIPID-CLEAVAGE ENZYME COMPLEX” (priority 1994, dated 1996)
# Tests used:
# P3X63Ag8.653-Zellen = test: Intracellular concentrations of AZT and AZT nucleotides (radioimmunoassay) in thymidine kinase deficient cells; assay type: in vitro ADME; conditions: for maximale Konzentrationen an AZT und AZT-Nukleotiden: after 6 h; for maximale Konzentrationen, nur AZT erfaßt: after 24 h, without alkaline phosphatase; for Substanzspiegel an phosphoryliertem AZT: comparison before/after alkaline phosphatase
# Description: Die Bestimmung der intrazellulären Konzentrationen an AZT und AZT-Nukleotiden in Thymidikinasedefizienten Zellen sollte weitere Erkenntnisse über die intrazelluläre Spaltung der Testsubstanz AZT-DMDOPE liefern. Intrazelluläres AZT kann in diesen Zellen aufgrund eines Mangels an Thymidin-Kinase (TK) nicht in ATZ-MP und somit in das therapeutisch wirksame AZT-TP überführt werden. Die Bestimmung der intrazellulären Konzentrationen an AZT und AZT-Nukleotiden nach Inkubation mit AZT-DMDOPE könnte somit einen weiteren Hinweis auf die Spaltung der Teststubstanz geben.
# Hierfür wurden in Gewebekulturschalen (60 x 15 mm) 1 x 10^7 Zellen in RPMI 1640 Komplettmedium I mit 0.03 bzw. 0.3 µg AZT/ml und 1 bzw. 10 µg AZT-DMDOPE/ml über 6, 24 und 48 h inkubiert. Nach Extraktion von AZT und der AZT-Nukleotide und einer Behandlung mit alkalischer Phosphatase wurde die Konzentration an AZT mit Hilfe des Radioimmuno-Assays bestimmt.
# stimulierten humanen PBL = test: Intracellular decay kinetics of AZT and AZT nucleotides after removal of the incubation solution; assay type: in vitro ADME, human
# Description: Stimulierte humane PBL wurden für 24 h mit 0.3 µg AZT/ml bzw. 10 µg AZT-DMDOPE/ml inkubiert. Anschließend wurden 1 x 10^7 Zellen in Gewebekulturflaschen (50 ml/25 cm^2) mit RPMI 1640 Komplettmedium I überführt. Nach 1, 3, 6, 24 und 48 h wurde AZT und die AZT-Nukleotide aus der zellulären Matrix extrahiert. Nach einer Behandlung mit alkalischer Phosphatase wurde mit Hilfe des Radioimmuno-Assays die Konzentration an AZT bestimmt.
# LCE = test: Substrate cleavage by LCE; assay type: biochemical; conditions: cleavage to drug monophosphate and DMDOP
# Description: Das Enzym wird vorzugsweise aus humanen peripheren Blutleukozyten, die zuvor durch PHA oder andere Stimulantien (z.B. Cytokine, etc.) aktiviert wurden, oder aus murinen Nierenzellen isoliert. Aus vorläufigen Untersuchungen ergibt sich ein Molekulargewicht von etwa 120.000 - 160.000, bestimmt nach der SDS-PAGE-Methode. Zellen, die dieses Enzym enthalten, können auf einfache Weise dadurch identifiziert werden, indem sie unter geeigneten Testbedingungen mit einer Lösung von AZT-DMDOPE oder FLT-DMDOPE versetzt werden und die Spaltprodukte AZT-monophosphat bzw. FLT-monophosphat oder DMDOP nachgewiesen werden, beispielsweise durch dünnschichtchromatographische Methoden oder im Fall von radioaktiv markierten Proben durch szintillatographische Verfahren (siehe Beispiele 4 - 7). Im Gegensatz zu den biochemisch verwandten Phospholipasen C oder -D wird das LCE nicht durch bekannte Inhibitoren von Phospholipase C oder -D gehemmt oder durch Aktivatoren von Phospholipase C oder -D aktiviert. Im Gegensatz zu Phospholipase C wird das Enzym durch die Substanz D 609 (Tricyclodecan-9-yl-xanthogenat; C11H15OS2 K) aktiviert, während D 609 Phospholipase C inhibiert.
# [1] = system: Zellhomogenate humaner PBL; test: Enzymatic cleavage of [14C]-AZT-DMDOPE by cell homogenates, TLC of metabolites; assay type: in vitro ADME, human
# Description: (§1) Die Spaltung von AZT-DMDOPE wurde mit Hilfe eines Enzym-Assays mit [^14C]-AZT-DMDOPE und AZT-DMDOPE als Substrat untersucht. Als Enzymquelle wurden zunächst Zellhomogenate von CEM-SS-Zellen und humanen PBL verwendet. Tab.
# Letztere wurden sowohl nach Stimulation mit PHA-M als auch in nichtstimuliertem Zustand direkt nach ihrer Isolierung homogenisiert und im Enzym-Assay eingesetzt.
# (§2) Zur Herstellung der Zellhomogenate wurden Zellsuspensionen mit einer Dichte von 5 x10^7 Zellen/ml 50 mM Tris (pH 7.4) im Glashomogenisator mechanisch aufgeschlossen. Der Zellaufschluß wurde hierbei im Umkehr-Phasenkontrast-Mikroskop optisch kontrolliert. Tab.
# (§3) Zunächst wurde 1 ml dieses Zellhomogenales in dem Enzym-Assay ohne vorherige Bestimmung der Proteinkonzentration eingesetzt.
# (§4) Zur Gewährleistung einer Substratsättigung wurden weitere 50 nmol der nichtradioaktiv markierten Verbindung hinzugefügt. [^14C]-AZT-DMDOPE trägt die radioaktive Markierung im Thioetherlipidteil und erlaubt somit eine eindeutige Identifikation der potentiellen Metabolits [^14-C]DMDOP.
# (§5) Die Ansätze wurden für 1, 3, 6 und 24 h im Wasserbad bei 37 °C inkubiert. Als Vergleich wurde ein Ansatz ohne Zugabe von Zellhomogenat mitgeführt. Anschließend wurden die Spaltprodukte mit Diethylether:2-Propanol (9:1, v/v) extrahiert und dünnschichtchromatographisch im IBA- und IBAE-System analysiert (Abb. 18). […]
# CEM-SS-Zellen = test: as above; assay type: in vitro ADME; conditions: Zellhomogenate von CEM-SS-Zellen
# Description: as §1, §2, §3, §4
# as §5, with “18). Nach Trennung der Substanzen wurde zur Detektion der radioaktiv markierten Substanzen die DC-Platte 15 min im Radio-DC-Analysator gemessen.” for “18).”
smiles,measurement,setting,value
"CCCCCCCCCCCCSCC(COP(=O)(O)OC[C@H]1O[C@@H](n2cc(C)c(=O)[nH]c2=O)C[C@@H]1N=[N+]=[N-])OCCCCCCCCCC (stereo partly drawn) [AZT-DMDOPE, (3'-Desoxy-3'-azidothymidin)-5'-phosphorsäure-(3-dodecyl-mercapto-2-decyloxy)-propylester]",maximale Konzentrationen an AZT und AZT-Nukleotiden,P3X63Ag8.653-Zellen; 1 µg AZT-DMDOPE/ml,0.55 ng/10^6 Zellen
same,"maximale Konzentrationen, nur AZT erfaßt",P3X63Ag8.653-Zellen; 1 µg AZT-DMDOPE/ml,0.05 ng/mL
same,Substanzspiegel an phosphoryliertem AZT,P3X63Ag8.653-Zellen; 1 µg AZT-DMDOPE/ml,0.48 ng/10^6 Zellen
same,maximale Konzentrationen an AZT und AZT-Nukleotiden,P3X63Ag8.653-Zellen; 10 µg AZT-DMDOPE/ml,4.40 ng/10^6 Zellen
same,"maximale Konzentrationen, nur AZT erfaßt",P3X63Ag8.653-Zellen; 10 µg AZT-DMDOPE/ml,1.10 ng/mL
same,Substanzspiegel an phosphoryliertem AZT,P3X63Ag8.653-Zellen; 10 µg AZT-DMDOPE/ml,2.42 ng/10^6 Zellen
same,intrazelluläre Konzentrationen an AZT und AZT-Nukleotiden im Vergleich zu äquipotenten Konzentrationen an AZT,"P3X63Ag8.653-Zellen; 6, 24 and 48 h incubation",deutlich höher
same,um Faktor höhere Konzentration an phosphoryliertem AZT im Vergleich zu äquipotenter Konzentration an AZT,stimulierten humanen PBL; 10 µg AZT-DMDOPE/ml vs. 0.3 µg AZT/ml,4.5
same,konstanter Wert der intrazellulären Konzentrationen an AZT und AZT-Nukleotiden,"stimulierten humanen PBL; 24 h preincubation with 10 µg AZT-DMDOPE/ml, reached after 3 h, constant over 48 h",1.80 ng/10^6 Zellen
same,Spaltung durch LCE,LCE,spaltet
same,Metabolisierung von AZT-DMDOPE,[1],zu DMDOP und AZT-MP metabolisiert
same,Metabolisierung von AZT-DMDOPE,CEM-SS-Zellen,zu DMDOP und AZT-MP metabolisiert
